Test: Phase I safety and tolerability (DLTs, adverse events, laboratory, ECG)
Assay type: in vivo
Method: This study employed a standard 3 + 3 dose escalation design with a starting dose of 25 mg QD. […] Dose escalation decisions took into account all available data from evaluable subjects as well as PK and the safety profile of prior dose cohorts. […] There was a minimum 5-day stagger between dosing of the first and second subjects in each dose cohort. Dose escalation decisions were made by a data review committee (DRC) composed of, at minimum, the medical monitor, at least one principal investigator, and a sponsor representative, per the study DRC Plan. Dose escalation could continue until 2 or more subjects in the same dose cohort experienced a dose-limiting toxicity (DLT). DLTs were defined as Grade 3 or 4 adverse drug reactions (ADRs), with grades as defined in the National Cancer Institute Common Toxicity Criteria for Adverse Events (NCI-CTCAE) version 5.0. […] The MTD was defined as the highest dose at which no more than 1 of 6 subjects experienced a DLT during cycle 1 of the study drug. The MTD would have been exceeded if 2 or more subjects in a dose cohort of up to 6 subjects experienced a DLT. Subjects could continue treatment until disease progression, unacceptable toxicity, death, withdrawal of consent, or loss to follow-up.
Before enrolment in the study, all patients received a detailed medical history and physical examination. Clinical laboratory evaluations included clinical chemistry, complete blood count, urinalysis, coagulation factors, and a lipid panel. Other safety assessments included vital signs, physical examination, electrocardiogram, and echocardiogram with multigated acquisition (ECHO/MUGA). Safety assessments were performed on days 1, 8, 15, and 21 of cycle 1, and on day 1 of cycles 2 to 6.

[1] = Grade All, Overall Study (N = 35)
[2] = Possibly related, Overall BID (N = 15)
[3] = Possibly related, Overall QD (N = 20)
[4] = Possibly related, Overall Study (N = 35)
[5] = Probably related, Overall BID (N = 15)
[6] = Probably related, Overall QD (N = 20)
[7] = Probably related, Overall Study (N = 35)
[8] = Relatedness All, Overall BID (N = 15)
[9] = Relatedness All, Overall QD (N = 20)
[10] = Relatedness All, Overall Study (N = 35)

Nc1ncc(-c2cnn(C3CCNCC3)c2)cc1-c1nnc(CC2CC2)o1 [SLC-391, 3-(5-[cyclopropylmethyl]-1,3,4-oxadiazol-2-yl)-5-(1-[piperidin-4-yl]-1H-pyrazol-4-yl)-pyridin-2-amine]
TEAE: Musculoskeletal and connective tissue disorders [1]: 14 (40.0) n (%)
TEAE: Nausea [1]: 24 (68.6) n (%)
TEAE: Nervous system disorders [1]: 15 (42.9) n (%)
TEAE: Oedema peripheral [1]: 4 (11.4) n (%)
TEAE: Psychiatric disorders [1]: 5 (14.3) n (%)
TEAE: Pyrexia [1]: 5 (14.3) n (%)
TEAE: Renal and urinary disorders [1]: 6 (17.1) n (%)
TEAE: Respiratory, thoracic, and mediastinal disorders [1]: 19 (54.3) n (%)
TEAE: Skin and subcutaneous tissue disorders [1]: 10 (28.6) n (%)
TEAE: Urinary tract infection [1]: 4 (11.4) n (%)
TEAE: Vascular disorders [1]: 5 (14.3) n (%)
TEAE: Vomiting [1]: 17 (48.6) n (%)
TEAE: Weight decreased [1]: 6 (17.1) n (%)
Any treatment-related adverse event (TRAE) [2]: 7 (46.7%) n (%)
TRAE: Decreased appetite [2]: 1 (6.7%) n (%)
TRAE: Diarrhoea [2]: 4 (26.7%) n (%)
TRAE: Dysgeusia [2]: 1 (6.7%) n (%)
TRAE: Fatigue [2]: 3 (20.0%) n (%)
TRAE: Gastrointestinal disorders [2]: 5 (33.3%) n (%)
TRAE: General disorders and administration site conditions [2]: 3 (20.0%) n (%)
TRAE: Metabolism and nutrition disorders [2]: 1 (6.7%) n (%)
TRAE: Nausea [2]: 4 (26.7%) n (%)
TRAE: Nervous system disorders [2]: 1 (6.7%) n (%)
TRAE: Skin and subcutaneous tissue disorders [2]: 2 (13.3%) n (%)
TRAE: Vomiting [2]: 1 (6.7%) n (%)
Any treatment-related adverse event (TRAE) [3]: 8 (40.0%) n (%)
TRAE: Decreased appetite [3]: 3 (15.0%) n (%)
TRAE: Diarrhoea [3]: 5 (25.0%) n (%)
TRAE: Dysgeusia [3]: 0 n (%)
TRAE: Fatigue [3]: 2 (10.0%) n (%)
TRAE: Gastrointestinal disorders [3]: 8 (40.0%) n (%)
TRAE: General disorders and administration site conditions [3]: 3 (15.0%) n (%)
TRAE: Metabolism and nutrition disorders [3]: 4 (20.0%) n (%)
TRAE: Nausea [3]: 5 (25.0%) n (%)
TRAE: Nervous system disorders [3]: 1 (5.0%) n (%)
TRAE: Skin and subcutaneous tissue disorders [3]: 4 (20.0%) n (%)
TRAE: Vomiting [3]: 3 (15.0%) n (%)
Any treatment-related adverse event (TRAE) [4]: 15 (42.9%) n (%)
TRAE: Decreased appetite [4]: 4 (11.4%) n (%)
TRAE: Diarrhoea [4]: 9 (25.7%) n (%)
TRAE: Dysgeusia [4]: 1 (2.9%) n (%)
TRAE: Fatigue [4]: 5 (14.3%) n (%)
TRAE: Gastrointestinal disorders [4]: 13 (37.1%) n (%)
TRAE: General disorders and administration site conditions [4]: 6 (17.1%) n (%)
TRAE: Metabolism and nutrition disorders [4]: 5 (14.3%) n (%)
TRAE: Nausea [4]: 9 (25.7%) n (%)
TRAE: Nervous system disorders [4]: 2 (5.7%) n (%)
TRAE: Skin and subcutaneous tissue disorders [4]: 6 (17.1%) n (%)
TRAE: Vomiting [4]: 4 (11.4%) n (%)
Any treatment-related adverse event (TRAE) [5]: 1 (6.7%) n (%)
TRAE: Diarrhoea [5]: 1 (6.7%) n (%)
TRAE: Dysgeusia [5]: 0 n (%)
TRAE: Gastrointestinal disorders [5]: 1 (6.7%) n (%)
TRAE: Nausea [5]: 0 n (%)
TRAE: Nervous system disorders [5]: 0 n (%)
TRAE: Skin and subcutaneous tissue disorders [5]: 0 n (%)
TRAE: Vomiting [5]: 0 n (%)
Any treatment-related adverse event (TRAE) [6]: 3 (15.0%) n (%)
TRAE: Diarrhoea [6]: 0 n (%)
TRAE: Dysgeusia [6]: 1 (5.0%) n (%)
TRAE: Gastrointestinal disorders [6]: 2 (10.0%) n (%)
TRAE: Nausea [6]: 2 (10.0%) n (%)
TRAE: Nervous system disorders [6]: 2 (10.0%) n (%)
TRAE: Skin and subcutaneous tissue disorders [6]: 2 (10.0%) n (%)
TRAE: Vomiting [6]: 1 (5.0%) n (%)
Any treatment-related adverse event (TRAE) [7]: 4 (11.4%) n (%)
TRAE: Diarrhoea [7]: 1 (2.9%) n (%)
TRAE: Dysgeusia [7]: 1 (2.9%) n (%)
TRAE: Gastrointestinal disorders [7]: 3 (8.6%) n (%)
TRAE: Nausea [7]: 2 (5.7%) n (%)
TRAE: Nervous system disorders [7]: 2 (5.7%) n (%)
TRAE: Skin and subcutaneous tissue disorders [7]: 2 (5.7%) n (%)
TRAE: Vomiting [7]: 1 (2.9%) n (%)
SAEs, subjects (QD cohorts): 20.0%
TEAEs leading to treatment interruption or missed dose (QD cohorts): 20.0%
TEAEs leading to treatment or study discontinuation, subjects (QD cohorts): 20.0%
subjects with Grade 3 TEAEs (QD cohorts): 30.0%
subjects with TRAEs (QD cohorts): 90.0%
subjects with at least one TEAE (QD cohorts): 95.0%
Any treatment-related adverse event (TRAE) [8]: 13 (86.7%) n (%)
TRAE: Decreased appetite [8]: 3 (20.0%) n (%)
TRAE: Diarrhoea [8]: 7 (46.7%) n (%)
TRAE: Dysgeusia [8]: 2 (13.3%) n (%)
TRAE: Fatigue [8]: 4 (26.7%) n (%)
TRAE: Gastrointestinal disorders [8]: 11 (73.3%) n (%)
TRAE: General disorders and administration site conditions [8]: 4 (26.7%) n (%)
TRAE: Metabolism and nutrition disorders [8]: 3 (20.0%) n (%)
TRAE: Nausea [8]: 8 (53.3%) n (%)
TRAE: Nervous system disorders [8]: 2 (13.3%) n (%)
TRAE: Skin and subcutaneous tissue disorders [8]: 2 (13.3%) n (%)
TRAE: Vomiting [8]: 4 (26.7%) n (%)
Any treatment-related adverse event (TRAE) [9]: 18 (90.0%) n (%)
TRAE: Decreased appetite [9]: 5 (25.0%) n (%)
TRAE: Diarrhoea [9]: 10 (50.0%) n (%)
TRAE: Dysgeusia [9]: 2 (10.0%) n (%)
TRAE: Fatigue [9]: 5 (25.0%) n (%)
TRAE: Gastrointestinal disorders [9]: 16 (80.0%) n (%)
TRAE: General disorders and administration site conditions [9]: 6 (30.0%) n (%)
TRAE: Metabolism and nutrition disorders [9]: 6 (30.0%) n (%)
TRAE: Nausea [9]: 11 (55.0%) n (%)
TRAE: Nervous system disorders [9]: 4 (20.0%) n (%)
TRAE: Skin and subcutaneous tissue disorders [9]: 6 (30.0%) n (%)
TRAE: Vomiting [9]: 9 (45.0%) n (%)
Any treatment-related adverse event (TRAE) [10]: 31 (88.6%) n (%)
TRAE: Decreased appetite [10]: 8 (22.9%) n (%)
TRAE: Diarrhoea [10]: 17 (48.6%) n (%)
TRAE: Dysgeusia [10]: 4 (11.4%) n (%)
TRAE: Fatigue [10]: 9 (25.7%) n (%)
TRAE: Gastrointestinal disorders [10]: 27 (77.1%) n (%)
TRAE: General disorders and administration site conditions [10]: 10 (28.6%) n (%)
TRAE: Metabolism and nutrition disorders [10]: 9 (25.7%) n (%)
TRAE: Nausea [10]: 19 (54.3%) n (%)
TRAE: Nervous system disorders [10]: 6 (17.1%) n (%)
TRAE: Skin and subcutaneous tissue disorders [10]: 8 (22.9%) n (%)
TRAE: Vomiting [10]: 13 (37.1%) n (%)
deaths (after study drug discontinuation due to progressive disease): Two deaths
heme toxicity, ECG, neutrophil count, QT interval/QTcF (all subjects): no reports of heme toxicity or clinically significant abnormal ECG and neutrophil count changes, including QT interval or QTcF prolongation
TEAEs leading to drug withdrawal or study discontinuation, subjects (all subjects (7/35)): 20.0%
subjects with at least one TEAE (all subjects (34/35)): 97.1%
subjects with Grade 3 TRAEs considered related to SLC-391 (all subjects (N = 35)): 8.6%
subjects with a maximum of Grade 1 TEAEs (all subjects (N = 35)): 8.6%
subjects with a maximum of Grade 2 TEAEs (all subjects (N = 35)): 54.3%
subjects with a maximum of Grade 3 TEAEs (all subjects (N = 35)): 34.3%
subjects with dosing interrupted due to TEAEs (all subjects (N = 35)): 25.7%
subjects with one or more TRAE (all subjects (N = 35)): 88.6%
subjects with SAEs (all subjects (N = 35), eight SAEs in five subjects): 14.3%
subjects with SAEs leading to dose interruption, drug withdrawal, or study discontinuation (all subjects (N = 35), four SAEs in three subjects): 8.6%
dose recommended by the safety review committee for further investigations (based on safety profile, PK and in vitro/in vivo efficacy data): 150 mg BID
clinical chemistry-related toxicities (hypokalaemia, hypomagnesaemia, hyponatraemia, hypophosphataemia, increased blood creatinine, decreased blood zinc, all unrelated to SLC-391): Most clinical chemistry-related toxicities were Grade 1 or 2

— publication PMC12736120, “First-in-Human Phase I Clinical Trial of SLC-391, a Novel and Selective AXL Inhibitor, in Patients with Advanced Solid Tumours” (Pharmaceuticals, 2025)
